Active and inactive are the calls of the source. How the calls were made is not given here. Square brackets hold non-standard residues; d marks the D form. Peptide text beside a SMILES is read from it. * marks the point of attachment. Benzoyl(4-tBu) = CC(C)(C)c1ccc(C(=O)*)cc1; Lys(Et2) = CCN(CC)CCCC[C@H](N)C(=O)O; Cbz = O=C(OCc1ccccc1)*
Columns and labels:
Schistosoma mansoni [1] = test: In vitro activity on S. mansoni schistosomula at 10 uM; format: functional, organism-based; parameters: test concentration 10 uM, temperature 37 degree C, time incubation 72 h; details: Puerto Rican
Schistosoma mansoni [2] = format: functional, Puerto Rican; details: temperature 37 degree C; tested at 10 uM; Worm movement inhibition (compared to DMSO control)_lower value 0 %; Worm movement inhibition (compared to DMSO control)_upper value 100 %
Schistosoma mansoni [3] = test: EC50 on S. mansoni schistosomula; format: functional, organism-based; details: Puerto Rican
Schistosoma mansoni [4] = test: In vitro activity on S. mansoni schistosomula at 50 uM; format: functional, organism-based; parameters: test concentration 50 uM, temperature 37 degree C, time incubation 72 h; details: Puerto Rican
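Wherever Worm movement inhibition is given: in vitro assay using adult worms.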

SMILES	In vitro activity (Schistosoma mansoni [1])	Worm movement inhibition (Schistosoma mansoni [2]) [%]	EC50 (Schistosoma mansoni [3]) [nM]	In vitro activity (Schistosoma mansoni [4])
CC1(C)CC(=O)c2c(C(F)(F)F)nn(-c3ccc(C(N)=O)c(N[C@H]4CC[C@H](O)CC4)c3)c2C1 [SNX-2112]	Active	25.47	1940	Active
Cc1[nH]c(/C=C2\C(=O)Nc3ccc(S(=O)(=O)Cc4c(Cl)cccc4Cl)cc32)c(C)c1C(=O)N1CCC[C@@H]1CN1CCCC1 [PHA-665752]	Active	99.71	4510	Active
Cc1cccc(-c2nc(Nc3ccncc3)c3ccccc3n2)n1	Active	40.28	2620	Active
C[C@@H]1C[C@H]2O[C@@H]2/C=C\C=C\C(=O)Cc2c(Cl)c(O)cc(O)c2C(=O)O1 [RADICICOL]	Active	82.43	1830	Active
CCNC(=O)c1noc(-c2cc(C(C)C)c(O)cc2O)c1-c1ccc(CN2CCOCC2)cc1 [LUMINESPIB]	Active	40.22	194	Active
Nc1nc(N)c2nc(-c3cccc(O)c3)c(-c3cccc(O)c3)nc2n1	inactive			inactive
COc1cc(N2CCC(N3CCN(C)CC3)CC2)ccc1Nc1ncc(Cl)c(Nc2ccccc2S(=O)(=O)C(C)C)n1 [TAE-684]	Active	99.53	2400	Active
CN1CCC(NC(=O)c2cc(-c3c(O)cc(O)cc3Oc3ccc([N+](=O)[O-])cc3)on2)CC1	inactive			inactive
COc1cc(N2CCN(C)CC2)ccc1Nc1nccc(-c2cn(C)c3cnccc23)n1	Active	93.2	3400	Active
CC(C)NCCCn1c(Sc2cc3c(cc2I)OCO3)nc2c(N)ncnc21	inactive			Active
O=C(/C=C/c1ccc(CN(CCO)CCc2c[nH]c3ccccc23)cc1)NO	inactive			Active
Cc1nc2c(OCc3ccccc3)cccn2c1CC#N	inactive			inactive
CN[C@@H]1C[C@H]2O[C@@](C)([C@@H]1OC)n1c3ccccc3c3c4c(c5c6ccccc6n2c5c31)C(=O)NC4	Active			Active
Cc1nccc(-c2cn(Cc3ccccc3)c3cnccc23)n1	inactive			Active
CN(C)Cc1c(C(=O)NCCOc2ccc(C(=O)NO)cc2)oc2ccccc12	inactive			Active
CC[C@@]1(O)C(=O)OCc2c1cc1n(c2=O)Cc2cc3ccccc3nc2-1	inactive			Active
C[C@]12CC[C@H](O)C[C@H]1CC[C@@H]1[C@@H]2CC[C@]2(C)[C@@H](C3=CC(=O)OC3)CC[C@]12O	inactive			Active
O=C(NO)c1cnc(NC2(c3ccccc3)CC2)nc1	inactive			inactive
O=C(NC1CCNCC1)c1n[nH]cc1NC(=O)c1c(Cl)cccc1Cl	inactive			inactive
Cc1cc(Nc2cc(N3CCN(C)CC3)nc(Sc3ccc(NC(=O)C4CC4)cc3)n2)n[nH]1	inactive			Active
Nc1nc2c(ncn2[C@@H]2O[C@H](COP(=O)(O)OP(=O)(O)O)[C@@H](O)[C@H]2O)c(=O)[nH]1	inactive			inactive
C[S+]([O-])c1ccc(-c2nc(-c3ccc(F)cc3)c(-c3ccncc3)[nH]2)cc1 (centres undefined)	inactive			inactive
O=C(c1ccc(/C=C/c2n[nH]c3ccccc23)cc1)N1CCNCC1	inactive			Active
Nc1ccc(-c2ccc(F)cc2)cc1NC(=O)C1CCOCC1	inactive			inactive
CCN(CC)CCCC[C@H](NC(=O)[C@H](CC(C)C)NC(=O)[C@H](C)NC(=O)[C@H](Cc1ccccc1)NC(=O)c1ccc(C(C)(C)C)cc1)C(=O)N[C@@H](CO)C(=O)OC ({Benzoyl(4-tBu)}-FAL[Lys(Et2)]S-OMe)	inactive			inactive
O=C(CCCCCCC(=O)Nc1cccnc1)NO	inactive			inactive
COc1ccc(-c2nc(N3CCOCC3)c3sc(CN(C)c4ncc(C(=O)NO)cn4)cc3n2)cn1 [FIMEPINOSTAT]	Active	56.87	606	Active

SMILES	In vitro activity (Schistosoma mansoni [1])	Worm movement inhibition (Schistosoma mansoni [2]) [%]	EC50 (Schistosoma mansoni [3]) [nM]	In vitro activity (Schistosoma mansoni [4])
CC(/C=C/C(=O)NO)=C\[C@@H](C)C(=O)c1ccc(N(C)C)cc1 [TRICHOSTATIN]	Active	8.13	558	Active
COc1ccc(-c2nc(N)ncc2-c2csc(C)n2)c(O)c1	inactive			inactive
O=C(/C=C/c1ccc2c(ccn2S(=O)(=O)c2ccccc2)c1)NO	inactive			Active
O=C1Nc2cc(Br)ccc2/C1=C1/Nc2ccccc2/C1=N\O [6BIO]	Active	95.74		Active
OCCCNc1cc(-c2ccnc(Nc3cccc(Cl)c3)n2)ccn1	Active	98.94	410	Active
O=C1NC(=O)/C(=C/c2ccc3nccnc3c2)S1	inactive			Active
CC1(C)Cc2c(sc(NC(=S)NC(=O)c3ccccc3)c2C(=O)O)CO1	inactive			inactive
Cc1cccc(-c2nn3c(c2-c2ccnc4ccc(C(N)=O)cc24)CCC3)n1	inactive			inactive
O=C1NCCCc2c1oc1ccc(O)cc21	inactive			inactive
CCNC(=O)c1cc2c(-c3cc(OCCN4CCCC4)c(Cl)cc3Cl)nc(N)nc2s1	Active	91.33	547	Active
CNc1ncc2cc(-c3ccc(-c4cccc(C)n4)cc3Cl)c(=O)n(C[C@H]3OC[C@H](N)CO3)c2n1	Active	98.47	2840	Active
CC[C@H](C)[C@H](NC(=O)[C@H]([C@@H](C)CC)N(C)C(C)=O)C(=O)N[C@H](C(=O)N[C@@H](CC(C)C)C(=O)[C@@]1(C)CO1)[C@@H](C)O [EPOXOMYCIN]	Active	97.15	226	Active
CN(C)CCCn1cc(C2=C(c3c[nH]c4ccccc34)C(=O)NC2=O)c2ccccc21	inactive			Active
CCN(CC)Cc1ccc2cc(COC(=O)Nc3ccc(C(=O)NO)cc3)ccc2c1	inactive			inactive
CC(=O)N1CCc2c(c(Nc3ccc(-c4cnn(C)c4)cc3F)nn2[C@H]2CCOC2)C1	inactive			inactive
Oc1ccc(Nc2nc(-c3ccc(Cl)cc3)cs2)cc1	inactive			Active
Cc1n[nH]c2ccc(-c3cncc(OC[C@@H](N)Cc4ccccc4)c3)cc12	Active	93.77	2930	Active
Cl.Cl.O=C(NCCCNc1nc(Nc2cccc(CN3CCOCC3)c2)ncc1C1CC1)C1CCC1	Active	97.58	3130	Active
CCOC(=O)NCCCC(=O)NCCc1ccccc1	inactive			inactive
CCN1/C(=C/C(C)=O)Sc2ccc(O)cc21	inactive			inactive
CC(C)C[C@@H](C=O)NC(=O)[C@H](CC(C)C)NC(=O)[C@H](CC(C)C)NC(=O)OCc1ccccc1 (Cbz-Leu-Leu-Leu-aldehyde)	inactive			Active
COc1ncc2cc(C(=O)Nc3cc(C(=O)NCc4cccc(Cl)c4)ccc3Cl)c(=O)[nH]c2n1	inactive			inactive
CCN1CCN(Cc2ccc(NC(=O)Nc3ccc(Oc4cc(NC)ncn4)cc3)cc2C(F)(F)F)CC1	inactive			Active
CCc1cc(-c2[nH]nc(C)c2-c2ccc3c(c2)OCCO3)c(O)cc1O	inactive			Active
COc1ccc2c(c1)[nH]c1c(C)nccc12	inactive			inactive
N[C@H]1C[C@@H]1c1ccc(-c2cccc(O)c2)cc1	inactive			Active
CC(O)(CC(=O)O)CC(=O)O	inactive			inactive

From ChEMBL document CHEMBL5096127, “Using ChEMBL to complement schistosome drug discovery” (2023)
